In the supplement of paper PMC5908809:

Columns and labels:
NK-92 (IL-2 2.5 ng/mL) [1] = assay: drug sensitivity score (DSS) (DSS units); higher = more sensitive; extreme values may be limits of the assay; details: 72 h
[2] = system: normal primary NK cells, pool 1 (3 donors) (IL-2 2.5 ng/mL); assay: as above; details: 72 h
[3] = system: normal primary NK cells, pool 3 (3 donors) (IL-2 2.5 ng/mL); assay: as above; details: 72 h
IMC-1 (IL-2 20 ng/mL) [4] = assay: as above; details: 72 h
[5] = system: normal primary NK cells, pool 2 (3 donors) (IL-2 2.5 ng/mL); assay: as above; details: 72 h
NKL (IL-2 2.5 ng/mL) [6] = assay: as above; details: 72 h
KAI3 (IL-2 2.5 ng/mL) [7] = assay: as above; details: 72 h
[8] = system: normal primary NK cells, pool 1 (3 donors), resting (IL-2 0 ng/mL); assay: as above; details: 72 h
SNK-6 (IL-2 2.5 ng/mL) [9] = assay: as above; details: 72 h
DERL-7 (IL-2 2.5 ng/mL) [10] = assay: as above; details: 72 h
YT (IL-2 2.5 ng/mL) [11] = assay: as above; details: 72 h
NK-YS (IL-2 2.5 ng/mL) [12] = assay: as above; details: 72 h
KHYG-1 (IL-2 2.5 ng/mL) [13] = assay: as above; details: 72 h
NK-92 (IL-2 2.5 ng/mL) [14] = assay: percent inhibition of viability; higher = more inhibition; details: 72 h
[15] = system: normal primary NK cells, pool 1 (3 donors) (IL-2 2.5 ng/mL); assay: as above; details: 72 h
[16] = system: normal primary NK cells, pool 3 (3 donors) (IL-2 2.5 ng/mL); assay: as above; details: 72 h
IMC-1 (IL-2 20 ng/mL) [17] = assay: as above; details: 72 h
[18] = system: normal primary NK cells, pool 2 (3 donors) (IL-2 2.5 ng/mL); assay: as above; details: 72 h
NKL (IL-2 2.5 ng/mL) [19] = assay: as above; details: 72 h
KAI3 (IL-2 2.5 ng/mL) [20] = assay: as above; details: 72 h
[21] = system: normal primary NK cells, pool 1 (3 donors), resting (IL-2 0 ng/mL); assay: as above; details: 72 h
SNK-6 (IL-2 2.5 ng/mL) [22] = assay: as above; details: 72 h
DERL-7 (IL-2 2.5 ng/mL) [23] = assay: as above; details: 72 h
YT (IL-2 2.5 ng/mL) [24] = assay: as above; details: 72 h
NK-YS (IL-2 2.5 ng/mL) [25] = assay: as above; details: 72 h
KHYG-1 (IL-2 2.5 ng/mL) [26] = assay: as above; details: 72 h
[27] = system: normal NK cells expanded with K562-aAPC; assay: as above; details: 72 h, IL-2 2.5 ng/mL
Method: (§1)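 Drug sensitivity and resistance testing on K562-aAPC-expanded normal NK cells: 5 concentrations (10-fold steps over a 10,000-fold range), 72 h at 37 °C, viability by CellTiter-Glo normalised to DMSO and benzethonium chloride controls; DSS from the fitted curve.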

[28] = system: normal NK cells expanded with K562-aAPC; assay: drug sensitivity score (DSS) (DSS units); higher = more sensitive; extreme values may be limits of the assay; details: 72 h; IL-2 2.5 ng/mL
Method: as §1

Question: Which results are given for Cc1c(Cn2c(C)nc3c(C(=O)O)cc(N4CCOCC4)cc32)cccc1C(F)(F)F (max concentration tested 10000 nM)?
Answer: drug sensitivity score (NK-92 (IL-2 2.5 ng/mL) [1]): 3.86; drug sensitivity score [2]: 0; drug sensitivity score [3]: 0.01; drug sensitivity score (IMC-1 (IL-2 20 ng/mL) [4]): 0; drug sensitivity score [5]: 0.23; drug sensitivity score (NKL (IL-2 2.5 ng/mL) [6]): 0.29; drug sensitivity score (KAI3 (IL-2 2.5 ng/mL) [7]): 3.6; drug sensitivity score [8]: 0; drug sensitivity score (SNK-6 (IL-2 2.5 ng/mL) [9]): 0.03; drug sensitivity score (DERL-7 (IL-2 2.5 ng/mL) [10]): 0.85; drug sensitivity score (YT (IL-2 2.5 ng/mL) [11]): 1.67; drug sensitivity score (NK-YS (IL-2 2.5 ng/mL) [12]): 0.34; drug sensitivity score (KHYG-1 (IL-2 2.5 ng/mL) [13]): 3.2; percent inhibition of viability (NK-92 (IL-2 2.5 ng/mL) [14]; 1 nM): -7.97%; percent inhibition of viability (NK-92 (IL-2 2.5 ng/mL) [14]; 10 nM): -2.84%; percent inhibition of viability (NK-92 (IL-2 2.5 ng/mL) [14]; 100 nM): 22%; percent inhibition of viability (NK-92 (IL-2 2.5 ng/mL) [14]; 1000 nM): 7.51%; percent inhibition of viability (NK-92 (IL-2 2.5 ng/mL) [14]; 10000 nM): 49%; percent inhibition of viability ([15]; 1 nM): -6.21%; percent inhibition of viability ([15]; 10 nM): 1.65%; percent inhibition of viability ([15]; 100 nM): -5.56%; percent inhibition of viability ([15]; 1000 nM): -4.02%; percent inhibition of viability ([15]; 10000 nM): 4.77%; percent inhibition of viability ([16]; 1 nM): -1.55%; percent inhibition of viability ([16]; 10 nM): 0.84%; percent inhibition of viability ([16]; 100 nM): 4.49%; percent inhibition of viability ([16]; 1000 nM): -0.45%; percent inhibition of viability ([16]; 10000 nM): 11.4%; percent inhibition of viability (IMC-1 (IL-2 20 ng/mL) [17]; 1 nM): -6.71%; percent inhibition of viability (IMC-1 (IL-2 20 ng/mL) [17]; 10 nM): -4.25%; percent inhibition of viability (IMC-1 (IL-2 20 ng/mL) [17]; 100 nM): -1.73%; percent inhibition of viability (IMC-1 (IL-2 20 ng/mL) [17]; 1000 nM): -3.09%; percent inhibition of viability (IMC-1 (IL-2 20 ng/mL) [17]; 10000 nM): 11.3%; percent inhibition of viability ([18]; 1 nM): -11.1%; percent inhibition of viability ([18]; 10 nM): -13.9%; percent inhibition of viability ([18]; 100 nM): -1.99%; percent inhibition of viability ([18]; 1000 nM): 1.31%; percent inhibition of viability ([18]; 10000 nM): 13.6%; percent inhibition of viability (NKL (IL-2 2.5 ng/mL) [19]; 1 nM): -15.7%; percent inhibition of viability (NKL (IL-2 2.5 ng/mL) [19]; 10 nM): -8.49%; percent inhibition of viability (NKL (IL-2 2.5 ng/mL) [19]; 100 nM): -1.03%; percent inhibition of viability (NKL (IL-2 2.5 ng/mL) [19]; 1000 nM): 1.51%; percent inhibition of viability (NKL (IL-2 2.5 ng/mL) [19]; 10000 nM): 14.1%; percent inhibition of viability (KAI3 (IL-2 2.5 ng/mL) [20]; 1 nM): 8.08%; percent inhibition of viability (KAI3 (IL-2 2.5 ng/mL) [20]; 10 nM): 9.48%; percent inhibition of viability (KAI3 (IL-2 2.5 ng/mL) [20]; 100 nM): 9.01%; percent inhibition of viability (KAI3 (IL-2 2.5 ng/mL) [20]; 1000 nM): 12.5%; percent inhibition of viability (KAI3 (IL-2 2.5 ng/mL) [20]; 10000 nM): 37.9%; percent inhibition of viability ([21]; 1 nM): -5.25%; percent inhibition of viability ([21]; 10 nM): 4.41%; percent inhibition of viability ([21]; 100 nM): 3.22%; percent inhibition of viability ([21]; 1000 nM): -19.1%; percent inhibition of viability ([21]; 10000 nM): -11.9%; percent inhibition of viability (SNK-6 (IL-2 2.5 ng/mL) [22]; 1 nM): -7.05%; percent inhibition of viability (SNK-6 (IL-2 2.5 ng/mL) [22]; 10 nM): -21.9%; percent inhibition of viability (SNK-6 (IL-2 2.5 ng/mL) [22]; 100 nM): 3.71%; percent inhibition of viability (SNK-6 (IL-2 2.5 ng/mL) [22]; 1000 nM): -6.21%; percent inhibition of viability (SNK-6 (IL-2 2.5 ng/mL) [22]; 10000 nM): 13.1%; percent inhibition of viability (DERL-7 (IL-2 2.5 ng/mL) [23]; 1 nM): 3.53%; percent inhibition of viability (DERL-7 (IL-2 2.5 ng/mL) [23]; 10 nM): -4.49%; percent inhibition of viability (DERL-7 (IL-2 2.5 ng/mL) [23]; 100 nM): 1.36%; percent inhibition of viability (DERL-7 (IL-2 2.5 ng/mL) [23]; 1000 nM): 12.1%; percent inhibition of viability (DERL-7 (IL-2 2.5 ng/mL) [23]; 10000 nM): 13.4%; percent inhibition of viability (YT (IL-2 2.5 ng/mL) [24]; 1 nM): 1%; percent inhibition of viability (YT (IL-2 2.5 ng/mL) [24]; 10 nM): 6.27%; percent inhibition of viability (YT (IL-2 2.5 ng/mL) [24]; 100 nM): 9.12%; percent inhibition of viability (YT (IL-2 2.5 ng/mL) [24]; 1000 nM): 14.3%; percent inhibition of viability (YT (IL-2 2.5 ng/mL) [24]; 10000 nM): 16.5%; percent inhibition of viability (NK-YS (IL-2 2.5 ng/mL) [25]; 1 nM): -2.91%; percent inhibition of viability (NK-YS (IL-2 2.5 ng/mL) [25]; 10 nM): -0.33%; percent inhibition of viability (NK-YS (IL-2 2.5 ng/mL) [25]; 100 nM): 7.31%; percent inhibition of viability (NK-YS (IL-2 2.5 ng/mL) [25]; 1000 nM): 5.6%; percent inhibition of viability (NK-YS (IL-2 2.5 ng/mL) [25]; 10000 nM): 15.8%; percent inhibition of viability (KHYG-1 (IL-2 2.5 ng/mL) [26]; 1 nM): -2.27%; percent inhibition of viability (KHYG-1 (IL-2 2.5 ng/mL) [26]; 10 nM): 6.11%; percent inhibition of viability (KHYG-1 (IL-2 2.5 ng/mL) [26]; 100 nM): 14.1%; percent inhibition of viability (KHYG-1 (IL-2 2.5 ng/mL) [26]; 1000 nM): 8.86%; percent inhibition of viability (KHYG-1 (IL-2 2.5 ng/mL) [26]; 10000 nM): 38.2%; percent inhibition of viability ([27]; 1 nM): 2.47%; percent inhibition of viability ([27]; 10 nM): -0.33%; percent inhibition of viability ([27]; 100 nM): 2.82%; percent inhibition of viability ([27]; 1000 nM): 11.7%; percent inhibition of viability ([27]; 10000 nM): 17.4%; drug sensitivity score [28]: 1.17
